Data taken from PubChem BioAssay (NCI).
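Assay format: 96-well plates, 48-hour exposure. TGI: total growth inhibition.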

Assays:
Test in all cases: DTP human tumour cell line panel, 48 h
[1] = test system: UACC-62 melanoma
[2] = test system: NCI-H226 lung
[3] = test system: KM12 colon
[4] = test system: SF-295 CNS
[5] = test system: HCT-15 colon
[6] = test system: MDA-MB-231 breast
[7] = test system: HS 578T breast
[8] = test system: SF-539 CNS
[9] = test system: SNB-19 CNS
[10] = test system: NCI-H460 lung
[11] = test system: T-47D breast
[12] = test system: SK-MEL-5 melanoma
[13] = test system: HCT-116 colon
[14] = test system: OVCAR-3 ovarian
[15] = test system: EKVX NSCLC
[16] = test system: K-562 leukemia
[17] = test system: NCI-H23 lung
[18] = test system: HOP-62 NSCLC
[19] = test system: MDA-MB-435
[20] = test system: DU-145 prostate
[21] = test system: HOP-92 NSCLC
[22] = test system: SK-MEL-2 melanoma
[23] = test system: A498 renal
[24] = test system: PC-3 prostate
[25] = test system: UACC-257 melanoma
[26] = test system: NCI-H522 lung
[27] = test system: RPMI-8226 leukemia
[28] = test system: A549 NSCLC
[29] = test system: MCF7 breast
[30] = test system: SN12C renal
[31] = test system: OVCAR-8 ovarian
[32] = test system: LOX IMVI melanoma
[33] = test system: NCI/ADR-RES ovarian
[34] = test system: M14 melanoma
[35] = test system: SR leukemia
[36] = test system: COLO 205 colon
[37] = test system: MALME-3M melanoma
[38] = test system: IGROV1 ovarian
[39] = test system: UO-31 renal
[40] = test system: TK-10 renal
[41] = test system: U251 CNS
[42] = test system: MOLT-4 leukemia
[43] = test system: 786-0 renal
[44] = test system: HT29 colon
[45] = test system: CCRF-CEM leukemia
[46] = test system: OVCAR-4 ovarian
[47] = test system: ACHN renal
[48] = test system: MDA-N
[49] = test system: SK-MEL-28 melanoma
[50] = test system: SF-268 CNS
[51] = test system: RXF 393 renal
[52] = test system: OVCAR-5 ovarian
[53] = test system: SK-OV-3 ovarian
[54] = test system: SNB-75 CNS
[55] = test system: CAKI-1 renal
[56] = test system: SW-620 colon
[57] = test system: HL-60(TB) leukemia

Measured: TGI

COc1ccc(N(CN2C(=O)CCC2OC)C(C)=O)cc1 (stereo not given)
> 100 µM: [1] | [2] | [3] | [4] | [5] | [6] | [7] | [8] | [9] | [10] | [11] | [12] | [13] | [14] | [15] | [16] | [17] | [18] | [19] | [20] | [21] | [22] | [23] | [24] | [25] | [26] | [27] | [28] | [29] | [30] | [31] | [32] | [33] | [34] | [35] | [36] | [37] | [38] | [39] | [40] | [41] | [42] | [43] | [44] | [45] | [46] | [47] | [48] | [49] | [50] | [51] | [52] | [53] | [54] | [55] | [56]

CC(CO)CCNc1ncnc2c1ncn2CCC(=O)O (stereo not given)
> 100 µM: [1] | [2] | [3] | [4] | [6] | [7] | [8] | [9] | [10] | [11] | [12] | [13] | [14] | [15] | [16] | [17] | [18] | [19] | [57] | [20] | [21] | [23] | [24] | [25] | [26] | [27] | [28] | [29] | [30] | [31] | [32] | [33] | [34] | [35] | [36] | [37] | [38] | [39] | [40] | [42] | [43] | [44] | [45] | [46] | [47] | [48] | [49] | [50] | [51] | [52] | [53] | [54] | [55] | [56]
